Test system: brain endothelial cells
Assay: Flow cytometry of brain endothelial cell uptake of tracer after ALPL inhibitor treatment
Assay type: in vivo, mice
Details: Atto 647N-labeled plasma, vs vehicle
Excerpt: FIGS. 14A-14D are graphs illustrating flow cytometry quantification of brain endothelial cell uptake of plasma from young mice (3 m.o.) (FIG. 14A), plasma from aged mice (22 m.o.) (FIG. 14B), human holo-transferrin (hu-Tf) from aged mice (FIG. 14C), or transferrin receptor antibody (TfR Ab) from aged mice (FIG. 14D) treated with vehicle (grey) or anti-ALPL (green) via IP injections twice daily for three days, as assessed by % of BECs that are tracer^+ and relative MFI of tracer^+ BECs (for plasma, n=4; for hu-Tf, n=6 vehicle, n=5 anti-ALPL; for TfR Ab, n=9, two-sided t-test, mean+/−s.e.m.). Tracer refers to plasma, hu-Tf, or TfR Ab. FIG. 14E includes representative images of hu-Tf^+ neurons detected in the cortex of mice treated with ALPL inhibitor. Scale bar=40 microns. […] FIG. 14H includes graphs illustrating flow cytometry quantification of brain endothelial cell and brain parenchymal cell uptake of 3 kDa dextran tracer, which probes for disruptions in paracellular permeability, in young mice (3 m.o.) and aged mice (22 m.o.) (n=6 vehicle, n=5 anti-ALPL, two-sided t-test, mean+/−s.e.m.).
CNS cell isolation adopted previously described methods42,139,140. […] For analysis of plasma uptake, at least 1,000 cells of each population of interest were analyzed per sample. […]

COc1ccc(OC)c(S(=O)(=O)Nc2cnc3ccccc3c2)c1 [ALPL inhibitor, 2,5-Dimethoxy-N-(quinolin-3-yl)benzenesulfonamide]
plasma uptake in brain endothelial cells, aged mice (aged (22 m.o.) mice): increased
plasma uptake in brain endothelial cells, young mice (young (3 m.o.) mice): increased
